In patent US20120101024A1, “Methods and Compositions for Differentiating Embryonic Stem Cells” (REGENERATIVE RESEARCH FOUNDATION, priority 2010, published 2012):

What was measured:
[1] = tested on: NPTX1; assay: NPTX1 knock down by lentiviral shRNA in hESCs, message level; assay type: cell-based, human; conditions: day 3 of neural differentiation
Procedure: (§1) Feeder free neural induction was carried out as previously described (Chambers et al., supra). Briefly, hESC cultures (WA-09 cells) were disaggregated using Accutase (Innovative Cell Technologies, Inc., San Diego, Calif.) for 20 minutes, washed using hESC media and pre-plated on gelatin for 1 hour at 37° C. in the presence of ROCK inhibitor (Sigma, Carlsbad, Calif.) to remove MEFs. The nonadherent hESCs were washed and plated at a density of 20,000 cells/cm^2 on BD Matrigel™ matrix (BD Biosciences, San Diego, Calif.) coated dishes in MEF conditioned hESCs media (CM) spiked with 10 ng/mL of FGF-2 and ROCK-inhibitor (Sigma). The ROCK inhibitor was withdrawn, and hESCs were allowed to expand in CM for 3 days or until they were nearly confluent. The initial differentiation media conditions included knock out serum replacement (KSR) media with […] TGF-β inhibitor (SB431542, Tocris) and 500 ng/mL of Noggin (R&D Systems). Upon day 5 of differentiation, increasing amounts of N2 media (Fasano et al., 2010, supra) (25%, 50%, 75%) was added to the KSR media every two days while maintaining 500 ng/mL of Noggin and TGF-β inhibitor.
(§2) Total RNA was extracted using an RNeasy kit (Qiagen). For each sample, 1 μg of total RNA was treated for DNA contamination and reverse transcribed using Quantitect first strand kit (Qiagen). Amplified material was detected using Taqman probes and PCR mix (ABI) on a Mastercycler RealPlex2 (Eppendorf). All results were normalized to a HPRT control and were from 3 technical replicates of 3 independent biological samples at each data point.
NPTX1 open reading frame (ORF) was generated by PCR. This fragment was cloned into the BamH1 and NotI sites of the lentiviral vector, pCDH-EF1-MCS-IRES GFP(SBI Biosciences). […] Viral titers were measured by serial dilution on NIH 3T3 cells (ATCC Deposit No. CRL-1658) followed by flow cytometric analysis after 72 hours. […]

[2] = tested on: hESCs (WA-09); assay: Neural induction of hESCs (dual SMAD inhibition protocol), marker expression by qRT-PCR / immunostaining; assay type: cell-based, human; conditions: for expression of the neural genes SOX1 and PAX6 (mRNA) compared to control: control empty vector
Procedure: as §1, §2
Cells were fixed using 4% paraformaldehyde for 15 minutes, washed with PBS, permeabilized using 0.3% Triton X in PBS, and blocked using 10% normal goat serum. Primary antibody used for microscopy was PAX6 (DSHB).
hESCs (WA-09; passages 35) were dissociated and plated on Matrigel with the ROCK inhibitor as single cells. 24 hrs post plating the ESCs were transduced with either control (empty vector), NPTX1 shRNA, or NPTX10RF containing vectors. One (1) week later, GFP-expressing colonies were manually picked and plated on MEFs. Cells were then expanded, tested for mycoplasma.
(§3) Antibodies used for performing immunocytochemistry, methods for which are described in Fasano et al., 2007, and 2010, supra, were obtained commercially as follows: PAX6 (Developmental Studies Hybridoma Bank (Iowa City, Iowa)), SOX2 (Santa Cruz Biotechnology (SCBT) (Santa Cruz, Calif.)), Nestin (Chemicon (Temecula, Calif.)), Nanog (SCBT), OCT-4 (SCBT), SMAD3 and SMAD1 (Cell Signaling Technology, Inc., Danvers, Mass.), FOXG1 (NeuraCell, Rensselaer, N.Y.), SSEA-4, SSEA-3, SSEA-1 (BD Pharmingen (San Diego, Calif.)). Alexa secondary antibodies were purchased from Invitrogen.

[3] = tested on: hESCs; assay: Dual SMAD protocol with substituted factors, PAX6 and SMAD1 at day 7 (BMP signaling); assay type: cell-based, human; conditions: after 7 days of differentiation
Procedure: as §1, §3
The directed neural differentiation paradigm used in this study employed the use of both a TGF-beta blocker (SB431542) and Noggin, a BMP blocker, as it has been shown that blocking only TGF-beta is not sufficient to drive neural commitment. While CRIPTO works to enhance NODAL signaling, it has been shown that NODAL itself can bind up BMPs and thus lower BMP signaling. Because NPTX1 depletes available CRIPTO in the extracelluar space and cell surface, it seemed plausible that the resulting excess Nodal could dampen BMP signaling. To test whether NPTX1 expression can reduce BMP signaling, the dual SMAD protocol was employed to generate neural cells (addition of Noggin and TGF-beta inhibitor SB431542).
In one condition, Noggin was substituted with a CRIPTO blocking antibody to see if CRIPTO loss could result in robust neural differentiation. As a positive control for BMP signaling, another group was treated with high levels of BMP7. After 7 days of differentiation, neural marker expression and SMAD1 levels were determined.

[4] = tested on: hESCs (WA-09); assay: Neurosphere assay on cells isolated at day 7 of differentiation; assay type: cell-based, human
Description: To assess the neural character of the cells generated, the resulting cells were isolated at day 7 of differentiation and subjected to a neurosphere assay. […] In control conditions, the neural genes PAX6 and SOX1 started to appear around day 4 (FIGS. 4B and 4C, respectively).

[5] = target: T1, CRIPTO (Homo sapiens, UniProt P13385); assay: Co-immunoprecipitation of CRIPTO with NPTX1-His from membrane fraction of hESCs; assay type: binding; conditions: conditioned media applied to hESCs for 1 hour
T1 construct: endogenous in cells; host or cells: hESCs (WA-09), membrane fraction of lysed cells
T1 sequence (P13385 31-150): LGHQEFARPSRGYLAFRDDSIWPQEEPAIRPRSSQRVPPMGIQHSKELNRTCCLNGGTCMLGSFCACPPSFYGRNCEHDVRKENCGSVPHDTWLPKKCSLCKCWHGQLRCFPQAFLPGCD

[6] = tested on: hESCs; assay: Recombinant CRP added to hESCs in neural differentiation conditions, mRNA at day 7; assay type: cell-based, human; conditions: 2 μg/ml, administered on days 0, 3 and 5; 7 days
Procedure: as §2
C-Reactive Protein (CRP) is a pentraxin protein that is found in the blood, and levels of which rise in response to stress and/or inflammation. […] It was also reported that, when CRP levels went over a particular threshold at 4-weeks of gestation, the time at which nervous system development occurs, an increased rate of miscarriage was identified. In the present Example, it was thus tested whether another member of the pentraxin protein family, in addition to NPTX1 might play an important role in neural differentiation. Recombinant CRP(R&D Systems, 2 μg/ml) or a vehicle control was added to hESCs cultured in conditions that would allow for neural development to proceed normally in the dish. […] Such acceleration of human development could be a cue for miscarriage and/or neural birth defects in fetuses exposed to high levels of CRP during this critical time of gestation.

[7] = day 7 of neural differentiation

shRNA1: lentiviral NPTX1 shRNA, AGT AAA GAG TGG AGA AAG A (SEQ ID NO: 42); did not knock down, used as negative control (AGTAAAGAGTGGAGAAAGA)
knock down of NPTX1 at the message level [1]: did not knock down NPTX1 | expression of the neural genes SOX1 and PAX6 (mRNA) compared to control [2, 7]: no effect

shRNA3: lentiviral NPTX1 shRNA, GAG AAA GGT CAG AAA GAC A (SEQ ID NO: 44) (GAGAAAGGTCAGAAAGACA)
knock down of NPTX1 at the message level [1]: successfully knocked down NPTX1 | expression of the neural genes SOX1 and PAX6 (mRNA) compared to control [2, 7]: significantly reduced levels | expression of early neuroectodermal markers GBX2 and SOX2 (qRT-PCR) ([2]; days 0-7, days 5 and 7 statistically significant): drastic reduction

NC(=O)c1ccc(-c2nc(-c3ccc4c(c3)OCO4)c(-c3ccccn3)[nH]2)cc1 [SB431542, reference compound]
PAX6 expression [3]: few PAX6 cells | pSMAD1 / SMAD1 levels [3]: high pSMAD1 levels

shRNA2: lentiviral NPTX1 shRNA, ACG TGT AGG TTG AGA ACA A (SEQ ID NO: 43) (ACGTGTAGGTTGAGAACAA)
knock down of NPTX1 at the message level [1]: successfully knocked down NPTX1 | SMAD2 and SMAD3 gene expression (RT-PCR) ([2]; NPTX1 knockdown hESCs): elevated gene expression | NANOG and OCT4 levels compared to control ([2]; day 7 of differentiation): elevated levels | CRIPTO expression compared to control-treated cells [2, 7]: 20 fold | expression of the neural genes SOX1 and PAX6 (mRNA) compared to control [2, 7]: significantly reduced levels | gene expression of PAX6 and SOX1 along the time course compared to control ([2]; time course of neural differentiation): much delayed and at much lower levels | number of neurospheres compared to control [4]: significant reduction

B1: NPTX1-His: NPTX1 protein with six HIS amino acids on the N-terminus, in conditioned media (protein)
chain: HHHHHHQDFGPTRFICTSVPVDADMCAASVAAGGAEELRSSVLQLRETVLQQKETILSQKETIRELTAKLGRCESQSTLDPGAGEARAGGGRKQPGSGKNTMGDLSRTPAAETLSQLGQTLQSLKTRLENLEQYSRLNSSSQTNSLKDLLQSKIDELERQVLSRVNTLEEGKGGPRNDTEERVKIETALTSLHQRISELEKGQKDNRPGDKFQLTFPLRTNYMYAKVKKSLPEMYAFTVCMWLKSSATPGVGTPFSYAVPGQANELVLIEWGNNPMEILINDKVAKLPFVINDGKWHHICVTWTTRDGVWEAYQDGTQGGSGENLAPYHPIKPQGVLVLGQEQDTLGGGFDATQAFVGELAHFNIWDRKLTPGEVYNLATCSTKALSGNVIAWAESHIEIYGGATKWTFEACRQIN
co-immunoprecipitation with CRIPTO [5]: coimmunoprecipitate

B2: BMP7: positive control for BMP signaling, high levels of BMP7 (protein, UniProt P18075 293-431, looked up)
Bone morphogenetic protein 7: STGSKQRSQNRSKTPKNQEALRMANVAENSSSDQRQACKKHELYVSFRDLGWQDWIIAPEGYAAYYCEGECAFPLNSYMNATNHAIVQTLVHFINPETVPKPCCAPTQLNAISVLYFDDSSNVILKKYRNMVVRACGCH
PAX6 expression [3]: few PAX6 cells | pSMAD1 / SMAD1 levels [3]: high pSMAD1 levels

B3: CRP: recombinant C-reactive protein (R&D Systems), a pentraxin protein (protein, UniProt P02741 19-224, looked up)
C-reactive protein: QTDMSRKAFVFPKESDTSYVSLKAPLTKPLKAFTVCLHFYTELSSTRGYSIFSYATKRQDNEILIFWSKDIGYSFTVGGSEILFEVPEVTVAPVHICTSWESASGIVEFWVDGKPRVRKSLKKGYTVGAEASIILGQEQDSFGGNFEGSQSLVGDIGNVNMWDFVLSPDEINTIYLGGPFSPNVLNWRALKYEVQGEVFTKPQLWP
NPTX1 expression [6]: increase | neural marker PAX6 compared to the control [6]: striking up-regulation
